Experimental data reported in the NIST ThermoML archive (doi:10.1021/je900482x).
Numbers after ± are expanded uncertainties.

Test: isobaric coefficient of expansion
Details: Liquid, Microcalorimeter

CCCCCC[n+]1ccn(C)c1.O=S(=O)([N-]S(=O)(=O)C(F)(F)F)C(F)(F)F
isobaric coefficient of expansion (278.15 K, 5000 kPa): 0.000674 ± 1.7e-05 1/K | isobaric coefficient of expansion (278.15 K, 10000 kPa): 0.000662 ± 1.6e-05 1/K | isobaric coefficient of expansion (278.15 K, 15000 kPa): 0.000654 ± 1.6e-05 1/K | isobaric coefficient of expansion (278.15 K, 20000 kPa): 0.000641 ± 1.6e-05 1/K | isobaric coefficient of expansion (278.15 K, 25000 kPa): 0.000635 ± 1.6e-05 1/K | isobaric coefficient of expansion (278.15 K, 30000 kPa): 0.000628 ± 1.5e-05 1/K | isobaric coefficient of expansion (278.15 K, 35000 kPa): 0.000619 ± 1.5e-05 1/K | isobaric coefficient of expansion (278.15 K, 40000 kPa): 0.000612 ± 1.5e-05 1/K | isobaric coefficient of expansion (278.15 K, 45000 kPa): 0.000602 ± 1.5e-05 1/K | isobaric coefficient of expansion (278.15 K, 50000 kPa): 0.000596 ± 1.5e-05 1/K | isobaric coefficient of expansion (288.15 K, 5000 kPa): 0.000668 ± 1.6e-05 1/K | isobaric coefficient of expansion (288.15 K, 10000 kPa): 0.000658 ± 1.6e-05 1/K | isobaric coefficient of expansion (288.15 K, 15000 kPa): 0.000647 ± 1.6e-05 1/K | isobaric coefficient of expansion (288.15 K, 20000 kPa): 0.000637 ± 1.6e-05 1/K | isobaric coefficient of expansion (288.15 K, 25000 kPa): 0.00063 ± 1.5e-05 1/K | isobaric coefficient of expansion (288.15 K, 30000 kPa): 0.00062 ± 1.5e-05 1/K | isobaric coefficient of expansion (288.15 K, 35000 kPa): 0.000614 ± 1.5e-05 1/K | isobaric coefficient of expansion (288.15 K, 40000 kPa): 0.000604 ± 1.5e-05 1/K | isobaric coefficient of expansion (288.15 K, 45000 kPa): 0.000597 ± 1.5e-05 1/K | isobaric coefficient of expansion (288.15 K, 50000 kPa): 0.000592 ± 1.5e-05 1/K | isobaric coefficient of expansion (298.15 K, 5000 kPa): 0.000664 ± 1.6e-05 1/K | isobaric coefficient of expansion (298.15 K, 10000 kPa): 0.000654 ± 1.6e-05 1/K | isobaric coefficient of expansion (298.15 K, 15000 kPa): 0.000643 ± 1.6e-05 1/K | isobaric coefficient of expansion (298.15 K, 20000 kPa): 0.000633 ± 1.6e-05 1/K | isobaric coefficient of expansion (298.15 K, 25000 kPa): 0.000626 ± 1.5e-05 1/K | isobaric coefficient of expansion (298.15 K, 30000 kPa): 0.000615 ± 1.5e-05 1/K | isobaric coefficient of expansion (298.15 K, 35000 kPa): 0.000605 ± 1.5e-05 1/K | isobaric coefficient of expansion (298.15 K, 40000 kPa): 0.000596 ± 1.5e-05 1/K | isobaric coefficient of expansion (298.15 K, 45000 kPa): 0.00059 ± 1.4e-05 1/K | isobaric coefficient of expansion (298.15 K, 50000 kPa): 0.000584 ± 1.4e-05 1/K | isobaric coefficient of expansion (308.15 K, 5000 kPa): 0.000659 ± 1.6e-05 1/K | isobaric coefficient of expansion (308.15 K, 10000 kPa): 0.000648 ± 1.6e-05 1/K | isobaric coefficient of expansion (308.15 K, 15000 kPa): 0.000637 ± 1.6e-05 1/K | isobaric coefficient of expansion (308.15 K, 20000 kPa): 0.000628 ± 1.5e-05 1/K | isobaric coefficient of expansion (308.15 K, 25000 kPa): 0.000618 ± 1.5e-05 1/K | isobaric coefficient of expansion (308.15 K, 30000 kPa): 0.000609 ± 1.5e-05 1/K | isobaric coefficient of expansion (308.15 K, 35000 kPa): 0.0006 ± 1.5e-05 1/K | isobaric coefficient of expansion (308.15 K, 40000 kPa): 0.000594 ± 1.5e-05 1/K | isobaric coefficient of expansion (308.15 K, 45000 kPa): 0.000585 ± 1.4e-05 1/K | isobaric coefficient of expansion (308.15 K, 50000 kPa): 0.000577 ± 1.4e-05 1/K | isobaric coefficient of expansion (318.15 K, 5000 kPa): 0.000654 ± 1.6e-05 1/K | isobaric coefficient of expansion (318.15 K, 10000 kPa): 0.000647 ± 1.6e-05 1/K | isobaric coefficient of expansion (318.15 K, 15000 kPa): 0.000637 ± 1.6e-05 1/K | isobaric coefficient of expansion (318.15 K, 20000 kPa): 0.000623 ± 1.5e-05 1/K | isobaric coefficient of expansion (318.15 K, 25000 kPa): 0.000615 ± 1.5e-05 1/K | isobaric coefficient of expansion (318.15 K, 30000 kPa): 0.000606 ± 1.5e-05 1/K | isobaric coefficient of expansion (318.15 K, 35000 kPa): 0.000597 ± 1.5e-05 1/K | isobaric coefficient of expansion (318.15 K, 40000 kPa): 0.000588 ± 1.4e-05 1/K | isobaric coefficient of expansion (318.15 K, 45000 kPa): 0.000578 ± 1.4e-05 1/K | isobaric coefficient of expansion (318.15 K, 50000 kPa): 0.000571 ± 1.4e-05 1/K | isobaric coefficient of expansion (328.15 K, 5000 kPa): 0.00065 ± 1.6e-05 1/K | isobaric coefficient of expansion (328.15 K, 10000 kPa): 0.000639 ± 1.6e-05 1/K | isobaric coefficient of expansion (328.15 K, 15000 kPa): 0.000632 ± 1.5e-05 1/K | isobaric coefficient of expansion (328.15 K, 20000 kPa): 0.000621 ± 1.5e-05 1/K | isobaric coefficient of expansion (328.15 K, 25000 kPa): 0.000609 ± 1.5e-05 1/K | isobaric coefficient of expansion (328.15 K, 30000 kPa): 0.000599 ± 1.5e-05 1/K | isobaric coefficient of expansion (328.15 K, 35000 kPa): 0.000591 ± 1.4e-05 1/K | isobaric coefficient of expansion (328.15 K, 40000 kPa): 0.000582 ± 1.4e-05 1/K | isobaric coefficient of expansion (328.15 K, 45000 kPa): 0.000574 ± 1.4e-05 1/K | isobaric coefficient of expansion (328.15 K, 50000 kPa): 0.000567 ± 1.4e-05 1/K | isobaric coefficient of expansion (338.15 K, 5000 kPa): 0.000649 ± 1.6e-05 1/K | isobaric coefficient of expansion (338.15 K, 10000 kPa): 0.000637 ± 1.6e-05 1/K | isobaric coefficient of expansion (338.15 K, 15000 kPa): 0.000627 ± 1.5e-05 1/K | isobaric coefficient of expansion (338.15 K, 20000 kPa): 0.000616 ± 1.5e-05 1/K | isobaric coefficient of expansion (338.15 K, 25000 kPa): 0.000605 ± 1.5e-05 1/K | isobaric coefficient of expansion (338.15 K, 30000 kPa): 0.000597 ± 1.5e-05 1/K | isobaric coefficient of expansion (338.15 K, 35000 kPa): 0.000588 ± 1.4e-05 1/K | isobaric coefficient of expansion (338.15 K, 40000 kPa): 0.00058 ± 1.4e-05 1/K | isobaric coefficient of expansion (338.15 K, 45000 kPa): 0.000571 ± 1.4e-05 1/K | isobaric coefficient of expansion (338.15 K, 50000 kPa): 0.000567 ± 1.4e-05 1/K | isobaric coefficient of expansion (348.15 K, 5000 kPa): 0.000644 ± 1.6e-05 1/K | isobaric coefficient of expansion (348.15 K, 10000 kPa): 0.000635 ± 1.6e-05 1/K | isobaric coefficient of expansion (348.15 K, 15000 kPa): 0.000623 ± 1.5e-05 1/K | isobaric coefficient of expansion (348.15 K, 20000 kPa): 0.00061 ± 1.5e-05 1/K | isobaric coefficient of expansion (348.15 K, 25000 kPa): 0.000602 ± 1.5e-05 1/K | isobaric coefficient of expansion (348.15 K, 30000 kPa): 0.000592 ± 1.5e-05 1/K | isobaric coefficient of expansion (348.15 K, 35000 kPa): 0.000584 ± 1.4e-05 1/K | isobaric coefficient of expansion (348.15 K, 40000 kPa): 0.000575 ± 1.4e-05 1/K | isobaric coefficient of expansion (348.15 K, 45000 kPa): 0.000567 ± 1.4e-05 1/K | isobaric coefficient of expansion (348.15 K, 50000 kPa): 0.000559 ± 1.4e-05 1/K
